Patent US9034894B2, “Derivate, preparation method and use of 10-methoxycamptothecin” (NORTHEAST FORESTRY UNIVERSITY, priority 2011, dated 2015)

System: ovarian cancer cell line 2774
Assay: thiazole blue colorimetric method, half inhibitory concentration on ovarian cancer cell line 2774
Type: cell-based

SMILES | IC50 [µM]
CCC(=O)OC1(CC)C(=O)OCc2c1cc1n(c2=O)Cc2cc3cc(OC)ccc3nc2-1 (stereo not shown) [10-methoxycamptothecin-20-O-propionate] | 842 ± 50.1
CCC1(OC(=O)[C@H](C)NC(=O)OC(C)(C)C)C(=O)OCc2c1cc1n(c2=O)Cc2cc3cc(OC)ccc3nc2-1 (stereo partly drawn) [10-methoxycamptothecin-20-O—(N′-t-butoxycarbonyl)-L-alanine ester] | 46.7 ± 21.7
CCC1(OC(=O)[C@H](Cc2ccccc2)NC(=O)OC(C)(C)C)C(=O)OCc2c1cc1n(c2=O)Cc2cc3cc(OC)ccc3nc2-1 (stereo partly drawn) [10-methoxycamptothecin-20-O—(N′-t-butoxycarbonyl)-L-phenylalanine ester] | 394 ± 21.7
CCC1(OC(=O)[C@@H](NC(=O)OC(C)(C)C)C(C)C)C(=O)OCc2c1cc1n(c2=O)Cc2cc3cc(OC)ccc3nc2-1 (stereo partly drawn) [10-methoxycamptothecin-20-O—(N′-t-butoxycarbonyl)-L-valine ester] | 1970 ± 93.6
